This is an account of results in BindingDB's records for patent US12496348 (Dana-Farber Cancer Institute, 2025).

The structures appear in SMILES notation.

What is called IC50 is the concentration that gives 50% inhibition.

The assay concerns the target CREB-binding protein (Homo sapiens, UniProt Q92793). The assay can be described thus: CBP (Bromodomain) AlphaScreen Assay. The method, then:
Assays were performed with minimal modifications from the manufacturer's protocol (PerkinElmer , USA). All reagents were diluted in 50 mM 4-(2-hydroxyethyl)-1-piperazineethanesulfonic acid (HEPES), 150 mM NaCl, 0.1% w/v bovine serum albumin (BSA), 0.01% w/v Tween 20, pH 7.5 and allowed to equilibrate to room temperature prior to addition to plates. After addition of AlphaScreen acceptor beads to master solutions, all subsequent steps were performed under low light conditions. A 2× solution of components with final concentrations of CBP bromodomain at 40 nM, Ni-coated Acceptor Bead at 10 μg/ml, and 7.2 nM biotinylated-Int-2 was added in 10 μL to 384-well plates (AlphaPlate-384, PerkinElmer , USA). Plates were spun down at 150×g, 100 nL of compound in dimethyl sulfoxide (DMSO) from stock plates were added by pin transfer using a Janus Workstation (PerkinElmer , USA). The streptavidin-coated donor beads ([…] final) were added as with previous the solution in a 2×10 μL volume. Following this addition, plates were sealed with foil to prevent light exposure and evaporation. The plates were spun down again at 150×g. Plates were incubated at room temperature for 1 hour and then read on a 2104 EnVision Multilabel Plate Reader (PerkinElmer , USA) using the manufacturer's protocol.
In general terms: In Alpha technology, singlet oxygen from a donor bead excites a nearby acceptor bead.

Chain of CREB-binding protein (Q92793 whole entry): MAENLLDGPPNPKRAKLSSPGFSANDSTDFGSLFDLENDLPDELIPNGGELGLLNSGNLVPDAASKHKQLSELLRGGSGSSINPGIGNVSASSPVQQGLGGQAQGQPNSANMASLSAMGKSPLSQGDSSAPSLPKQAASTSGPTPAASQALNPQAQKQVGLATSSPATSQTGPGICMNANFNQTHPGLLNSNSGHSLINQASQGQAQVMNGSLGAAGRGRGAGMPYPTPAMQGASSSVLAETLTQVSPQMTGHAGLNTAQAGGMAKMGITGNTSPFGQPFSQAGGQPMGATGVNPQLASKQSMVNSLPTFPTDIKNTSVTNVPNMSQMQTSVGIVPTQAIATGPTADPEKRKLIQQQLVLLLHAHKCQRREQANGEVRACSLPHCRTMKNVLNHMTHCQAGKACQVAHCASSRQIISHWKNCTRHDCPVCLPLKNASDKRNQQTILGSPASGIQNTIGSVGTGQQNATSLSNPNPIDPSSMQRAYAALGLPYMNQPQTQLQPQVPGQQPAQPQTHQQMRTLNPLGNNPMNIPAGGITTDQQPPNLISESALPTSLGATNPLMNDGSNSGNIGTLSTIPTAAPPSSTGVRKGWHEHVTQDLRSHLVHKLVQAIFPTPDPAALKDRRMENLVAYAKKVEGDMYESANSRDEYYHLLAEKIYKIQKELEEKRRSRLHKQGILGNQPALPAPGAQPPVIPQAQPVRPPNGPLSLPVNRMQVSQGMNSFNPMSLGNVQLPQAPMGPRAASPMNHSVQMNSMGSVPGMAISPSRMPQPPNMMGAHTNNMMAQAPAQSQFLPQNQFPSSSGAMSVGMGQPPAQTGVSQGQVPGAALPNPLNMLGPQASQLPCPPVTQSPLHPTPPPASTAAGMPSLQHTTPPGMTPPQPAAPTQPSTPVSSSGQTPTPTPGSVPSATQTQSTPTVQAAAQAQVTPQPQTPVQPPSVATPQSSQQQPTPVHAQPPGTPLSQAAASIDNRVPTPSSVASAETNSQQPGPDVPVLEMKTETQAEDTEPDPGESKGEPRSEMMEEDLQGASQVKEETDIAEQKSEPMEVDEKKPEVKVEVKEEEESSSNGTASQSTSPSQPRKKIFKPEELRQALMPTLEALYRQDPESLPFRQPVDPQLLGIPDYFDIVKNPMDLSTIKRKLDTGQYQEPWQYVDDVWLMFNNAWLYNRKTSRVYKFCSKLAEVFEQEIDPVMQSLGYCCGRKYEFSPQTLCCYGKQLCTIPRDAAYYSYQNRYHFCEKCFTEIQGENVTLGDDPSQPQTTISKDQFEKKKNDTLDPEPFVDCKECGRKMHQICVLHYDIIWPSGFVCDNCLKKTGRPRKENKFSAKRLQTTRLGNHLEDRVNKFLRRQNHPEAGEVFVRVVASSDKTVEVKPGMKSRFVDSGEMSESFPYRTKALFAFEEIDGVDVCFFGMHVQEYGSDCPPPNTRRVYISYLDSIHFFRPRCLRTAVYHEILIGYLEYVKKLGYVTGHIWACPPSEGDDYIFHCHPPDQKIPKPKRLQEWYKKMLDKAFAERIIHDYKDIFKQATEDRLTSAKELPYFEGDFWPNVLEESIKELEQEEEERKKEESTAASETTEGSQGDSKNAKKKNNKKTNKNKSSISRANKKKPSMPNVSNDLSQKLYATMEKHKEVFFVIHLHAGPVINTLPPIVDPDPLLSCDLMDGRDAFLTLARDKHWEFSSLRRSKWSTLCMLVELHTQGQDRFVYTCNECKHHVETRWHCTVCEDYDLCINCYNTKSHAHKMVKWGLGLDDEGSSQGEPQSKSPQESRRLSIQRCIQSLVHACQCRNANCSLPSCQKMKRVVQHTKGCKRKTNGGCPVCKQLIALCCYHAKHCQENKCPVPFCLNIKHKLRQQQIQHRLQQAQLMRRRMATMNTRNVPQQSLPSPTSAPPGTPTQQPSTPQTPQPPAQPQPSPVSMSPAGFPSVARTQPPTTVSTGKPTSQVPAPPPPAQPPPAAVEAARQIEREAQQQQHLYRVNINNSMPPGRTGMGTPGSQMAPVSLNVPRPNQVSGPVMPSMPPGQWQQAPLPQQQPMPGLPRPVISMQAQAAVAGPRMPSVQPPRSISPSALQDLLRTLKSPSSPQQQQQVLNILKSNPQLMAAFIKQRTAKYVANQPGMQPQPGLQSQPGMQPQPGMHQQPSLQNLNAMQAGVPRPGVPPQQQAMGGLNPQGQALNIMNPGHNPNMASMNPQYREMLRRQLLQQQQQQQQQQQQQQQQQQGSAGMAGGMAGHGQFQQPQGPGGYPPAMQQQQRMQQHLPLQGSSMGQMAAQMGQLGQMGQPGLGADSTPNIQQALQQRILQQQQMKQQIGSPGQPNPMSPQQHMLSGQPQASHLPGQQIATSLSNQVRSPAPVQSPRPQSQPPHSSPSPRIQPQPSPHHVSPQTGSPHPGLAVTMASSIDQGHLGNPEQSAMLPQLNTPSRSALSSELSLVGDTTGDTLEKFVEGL

As for `Cc1noc(C)c1-c1ccc2nc(-c3ccc(N4CCN(C(=O)CCCCCCCCCCCNc5ccc6c(c5)C(=O)N(C5CCC(=O)NC5=O)C6=O)CC4)cc3)c(NC3CCCCC3)n2c1` (stereo unspecified) [US12496348, Compound 1], the IC50 amounted to 18.9 µM.
